This assay concerns the target hATX/ENPP2 (Homo sapiens, UniProt Q13822). Put plainly: hATX/ENPP2 biochemical assay using 16:0-LPC as substrate (Amplex Red/choline oxidase/HRP fluorescence). The conditions noted are these: hENPP2 2.5 nM, LPC (16:0) substrate. The essentials:
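Enzyme preincubated with compounds 15 min at room temperature in 50 mM Tris-HCl pH 8.0, 140 mM NaCl, 5 mM CaCl2, 0.01% Triton X-100. Reaction started with 80 μM LPC (16:0) stock plus Amplex Red/choline oxidase/HRP mix; fluorescence (ex 530/em 590 nm) read kinetically. IC50 from slope between 60 and 70 min.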

SMILES strings stand for the structures. pIC50: −log10 of the molar value. Where a name gives a salt, the structure may show the parent alone.

Turning to `CCc1nc2ccc(-c3cnc(N4CCC(NC(=O)[C@@H]5C[C@H](O)CN5)CC4)nc3)cn2c1N(C)c1nc(-c2ccc(F)cc2)c(C#N)s1` [Compound 75, (2S,4S)—N-(1-(5-(3-((5-cyano-4-(4-fluorophenyl)thiazol-2-yl)(methyl)amino)-2-ethylimidazo[1,2-a]pyridin-6-yl)pyrimidin-2-yl)piperidin-4-yl)-4-hydroxypyrrolidine-2-carboxamide], the pIC50 (as a rule, −log10 of the IC50, conventionally taken in molar units) was at least 7.70. With `CCc1nc2ccc(-c3cnc(N4CCC(NC(=O)[C@H]5C[C@@H](O)CN5)CC4)nc3)cn2c1N(C)c1nc(-c2ccc(F)cc2)c(C#N)s1` [Compound 76, (2R,4R)—N-(1-(5-(3-((5-cyano-4-(4-fluorophenyl)thiazol-2-yl)(methyl)amino)-2-ethylimidazo[1,2-a]pyridin-6-yl)pyrimidin-2-vl)piperidin-4-yl)-4-hydroxypyrrolidine-2-carboxamide] the figure was at least 7.70. The same measure for `CCc1nc2ccc(-c3cnc(N4CCC(NC(=O)[C@@H]5C[C@@H](O)CN5)CC4)nc3)cn2c1N(C)c1nc(-c2ccc(F)cc2)c(C#N)s1` [Compound 77, (2S,4R)—N-(1-(5-(3-((5-cyano-4-(4-fluorophenyl)thiazol-2-yl)(methyl)amino)-2-ethylimidazo[1,2-a]pyridin-6-yl)pyrimidin-2-yl)piperidin-4-yl)-4-hydroxypyrrolidine-2-carboxamide]: at least 7.70; for `CCc1nc2ccc(-c3cnc(N4CCN(C(=O)[C@@H]5C[C@@H](O)CN5C)CC4)nc3)cn2c1N(C)c1nc(-c2ccc(F)cc2)c(C#N)s1` [Compound 78, 2-((2-ethyl-6-(2-(4-((2S,4R)-4-hydroxy-1-methylpyrrolidine-2-carbonyl)piperazin-1-yl)pyrimidin-5-yl)imidazo [1,2-a]pyridin-3-yl)(methyl)amino)-4-(4-fluorophenyl)thiazole-5-carbonitrile]: at least 7.70. With `CCc1nc2ccc(-c3cnc(N4CCN(C(=O)NC5CN(C)C5)CC4)nc3)cn2c1N(C)c1nc(-c2ccc(F)cc2)c(C#N)s1` [Compound 82 hydrochloride, 4-(5-(3-((5-cyano-4-(4-fluorophenyl)thiazol-2-yl)(methyl)amino)-2-ethylimidazo[1,2-a]pyridin-6-yl)pyrimidin-2-yl)-N-(1-methylazetidin-3-yl)piperazine-1-carboxamide hydrochloride] the figure was at least 7.70. In turn, `CCc1nc2ccc(-c3cnc(N4CCC(NC(=O)C5CNC5)CC4)nc3)cn2c1N(C)c1nc(-c2ccc(F)cc2)c(C#N)s1` [Compound 83 hydrochloride, N-(1-(5-(3-((5-cyano-4-(4-fluorophenyl)thiazol-2-yl)(methyl)amino)-2-ethylimidazo[1,2-a]pyridin-6-yl)pyrimidin-2-yl)piperidin-4-yl)azetidine-3-carboxamide hydrochloride] showed a pIC50 of at least 7.70.

Regarding `CCc1nc2ccc(-c3cnc(N4CCC(NC(=O)C5CCNCC5)CC4)nc3)cn2c1N(C)c1nc(-c2ccc(F)cc2)c(C#N)s1` [Compound 84, N-(1-(5-(3-((5-cyano-4-(4-fluorophenyl)thiazol-2-yl)(methyl)amino)-2-ethylimidazo[1,2-a]pyridin-6-yl)pyrimidin-2-yl)piperidin-4-yl)piperidine-4-carboxamide], the negative logarithm of the IC50 (pIC50) was at least 7.70.

For `CCc1nc2ccc(-c3ccc(N4CCN(C(=O)C5CN(C)C5)CC4)nc3)cn2c1N(C)c1nc(-c2ccc(F)cc2)c(C#N)s1` [Compound 86, 2-((2-ethyl-6-(6-(4-(1-methylazetidine-3-carbonyl)piperazin-1-yl)pyridin-3-yl)imidazo[1,2-a]pyridin-3-yl)(methyl)amino)-4-(4-fluorophenyl)thiazole-5-carbonitrile], the pIC50 was 6.70 to 7.70.

`CCc1nc2ccc(-c3ccc(N4CCC(NC5(CO)CC5)CC4)nc3)cn2c1N(C)c1nc(-c2ccc(F)cc2)c(C#N)s1` [Compound 88, 2-((2-ethyl-6-(6-(4-((1-(hydroxymethyl)cyclopropyl)amino)piperidin-1-yl)pyridin-3-yl)imidazo[1,2-a]pyridin-3-yl)(methyl)amino)-4-(4-fluorophenyl)thiazole-5-carbonitrile] showed a pIC50 of at least 7.70.

`CCc1nc2ccc(-c3ccc(N4CCC(NC5CNC5)CC4)nc3)cn2c1N(C)c1nc(-c2ccc(F)cc2)c(C#N)s1` [Compound 89 hydrochloride, 2-((6-(6-(4-(azetidin-3-ylamino)piperidin-1-yl)pyridin-3-yl)-2-ethylimidazo[1,2-a]pyridin-3-yl)(methyl)amino)-4-(4-fluorophenyl)thiazole-5-carbonitrile hydrochloride] had a negative logarithm of the IC50 (pIC50) of at least 7.70. The same measure for `CCc1nc2ccc(-c3ccc(N4CCC(NC5CCNCC5)CC4)nc3)cn2c1N(C)c1nc(-c2ccc(F)cc2)c(C#N)s1` [Compound 90, 2-((2-ethyl-6-(6-(4-(piperidin-4-ylamino)piperidin-1-yl)pyridin-3-yl)imidazo[1,2-a]pyridin-3-yl)(methyl)amino)-4-(4-fluorophenyl)thiazole-5-carbonitrile]: at least 7.70; for `CCc1nc2ccc(-c3ccc(N4CCN(CC(=O)N5CC[C@H](O)C5)CC4)nc3)cn2c1N(C)c1nc(-c2ccc(F)cc2)c(C#N)s1` [Compound 91, (S)-2-((2-ethyl-6-(6-(4-(2-(3-hydroxypyrrolidin-1-yl)-2-oxoethyl)piperazin-1-yl)pyridin-3-yl)imidazo[1,2-a]pyridin-3-yl)(methyl)amino)-4-(4-fluorophenyl) thiazole-5-carbonitrile]: at least 7.70. With `CCc1nc2ccc(-c3ccc(N4CCN(C(=O)NC5CCNCC5)CC4)nc3)cn2c1N(C)c1nc(-c2ccc(F)cc2)c(C#N)s1` [Compound 94, 4-(5-(3-((5-cyano-4-(4-fluorophenyl)thiazol-2-yl)(methyl)amino)-2-ethylimidazo[1,2-a]pyridin-6-yl)pyridin-2-yl)-N-(piperidin-4-yl)piperazine-1-carboxamide] the figure was 6.70 to 7.70; with `CCc1nc2ccc(-c3ccc(N4CCN(C(=O)[C@@H]5C[C@@H](O)CN5)CC4)nc3)cn2c1N(C)c1nc(-c2ccc(F)cc2)c(C#N)s1` [Compound 95, 2-((2-ethyl-6-(6-(4-((2S,4R)-4-hydroxypyrrolidine-2-carbonyl)piperazin-1-yl)pyridin-3-yl)imidazo[1,2-a]pyridin-3-yl)(methyl)amino)-4-(4-fluorophenyl)thiazole-5-carbonitrile], at least 7.70. Take `CCc1nc2ccc(-c3ccc(N4CCN(C(=O)NC5CNC5)CC4)nc3)cn2c1N(C)c1nc(-c2ccc(F)cc2)c(C#N)s1` [Compound 96 hydrochloride, N-(azetidin-3-yl)-4-(5-(3-((5-cyano-4-(4-fluorophenyl)thiazol-2-yl)(methyl)amino)-2-ethylimidazo[1,2-a]pyridin-6-yl)pyridin-2-yl) piperazine-1-carboxamide hydrochloride]: the pIC50 is 6.70 to 7.70. The same measure for `CCc1nc2ccc(-c3ccc(N4CC(C(=O)NC5(CO)CC5)C4)nc3)cn2c1N(C)c1nc(-c2ccc(F)cc2)c(C#N)s1` [Compound 97, 1-(5-(3-((5-cyano-4-(4-fluorophenyl)thiazol-2-yl)(methyl)amino)-2-ethylimidazo[1,2-a]pyridin-6-yl)pyridin-2-yl)-N-(1-(hydroxymethyl)cyclopropyl)azetidine-3-carboxamide]: 6.70 to 7.70; for `CCc1nc2ccc(-c3ccc(N4CCC(NC(=O)C5(O)CC5)CC4)nc3)cn2c1N(C)c1nc(-c2ccc(F)cc2)c(C#N)s1` [Compound 98, N-(1-(5-(3-((5-cyano-4-(4-fluorophenyl)thiazol-2-yl)(methyl)amino)-2-ethylimidazo[1,2-a]pyridin-6-yl)pyridin-2-yl)piperidin-4-yl)-1-hydroxycyclopropane-1-carboxamide]: at least 7.70; for `CCc1nc2ccc(-c3cnc(C4CCN(C(=O)C5CC5)CC4)nc3)cn2c1N(C)c1nc(-c2ccc(F)cc2)c(C#N)s1` [Compound 99, 2-((6-(2-(1-(cyclopropanecarbonyl)piperidin-4-yl)pyrimidin-5-yl)-2-ethylimidazo[1,2-a]pyridin-3-yl)(methyl)amino)-4-(4-fluorophenyl)thiazole-5-carbonitrile]: 6.70 to 7.70. With `CCc1nc2ccc(-c3cnc(C4CCN(C(=O)C5CCC5)CC4)nc3)cn2c1N(C)c1nc(-c2ccc(F)cc2)c(C#N)s1` [Compound 100, 2-((6-(2-(1-(cyclobutanecarbonyl)piperidin-4-yl)pyrimidin-5-yl)-2-ethylimidazo[1,2-a]pyridin-3-yl)(methyl)amino)-4-(4-fluorophenyl)thiazole-5-carbonitrile] the figure was 6.70 to 7.70; with `CCc1nc2ccc(-c3cnc(C4CCN(C(=O)N5CCC5)CC4)nc3)cn2c1N(C)c1nc(-c2ccc(F)cc2)c(C#N)s1` [Compound 101, 2-((6-(2-(1-(azetidine-1-carbonyl)piperidin-4-yl)pyrimidin-5-yl)-2-ethylimidazo[1,2-a]pyridin-3-yl)(methyl)amino)-4-(4-fluorophenyl)thiazole-5-carbonitrile], 6.70 to 7.70. Turning to `CCc1nc2ccc(-c3cnc(C4CCN(C(=O)N5CCCC5)CC4)nc3)cn2c1N(C)c1nc(-c2ccc(F)cc2)c(C#N)s1` [Compound 102, 2-((2-ethyl-6-(2-(1-(pyrrolidine-1-carbonyl)piperidin-4-yl)pyrimidin-5-yl)imidazo[1,2-a]pyridin-3-yl)(methyl)amino)-4-(4-fluorophenyl)thiazole-5-carbonitrile], the negative-log IC50 (pIC50) is 6.70 to 7.70. The compound `CCc1nc2ccc(-c3cnc(C4CCN(CC(=O)N5CCC5)CC4)nc3)cn2c1N(C)c1nc(-c2ccc(F)cc2)c(C#N)s1` [Compound 103, 2-((6-(2-(1-(2-(azetidin-1-yl)-2-oxoethyl)piperidin-4-yl)pyrimidin-5-yl)-2-ethylimidazo[1,2-a]pyridin-3-yl)(methyl)amino)-4-(4-fluorophenyl)thiazole-5-carbonitrile] had a negative-log IC50 (pIC50) of 6.70 to 7.70.
